Species on record: Rattus norvegicus
Experiment: Open TG-GATES - Regimen: Single
Type: toxicity, organism-based, Sprague-Dawley
Set-up: regimen Single, gender Male, age 6 weeks
Conditions: in vivo, po, 600 mg/kg, route gavage, dose level High; for APTT / Bas / Eos / Fbg / Hb / Ht / Lym / MCH / MCHC / MCV / Mono / Neu / PT / Plat / RBC / Ret / WBC: tissue Blood; for KIDNEY_L / KIDNEY_R / KIDNEY_TOTAL: tissue Kidney; for LIVER: tissue Liver; for A/G / ALP / ALT / AST / BUN / CRE / Ca / Cl / DBIL / GLC / IP / K / LDH / Na / PL / RALB / TBIL / TC / TG / TP / gamma-GTP: tissue Plasma

## C[C@](N)(Cc1ccc(O)c(O)c1)C(=O)O [METHYLDOPA]
3 h
  TERMINAL_BW: 186.5 g
  APTT: 15.6 s
  Bas: 0%
  Eos: 0.8%
  Fbg: 261.6 mg/dL
  Hb: 13.2 g/dL
  Ht: 39.8%
  Lym: 74.6%
  MCH: 22 pg
  MCHC: 33.1%
  MCV: 66.7 fL
  Mono: 3.4%
  Neu: 20.8%
  PT: 12.2 s
  Plat: 112.5 x10_4/uL
  RBC: 597.2 x10_4/ul
  Ret: 10.6%
  WBC: 68.3 x10_2/uL
  KIDNEY_L: 0.8 g
  KIDNEY_R: 0.8 g
  KIDNEY_TOTAL: 1.6 g
  LIVER: 7.8 g
  A/G: 0.9
  ALP: 1837.6 IU/L
  ALT: 55.2 IU/L
  AST: 84.4 IU/L
  BUN: 9.4 mg/dL
  CRE: 0.1 mg/dL
  Ca: 11.3 mg/dL
  Cl: 108.2 meq/L
  DBIL: 0.018 mg/dL
  GLC: 204.4 mg/dL
  IP: 9.8 mg/dL
  K: 4.6 meq/L
  LDH: 59.6 IU/L
  Na: 143.4 meq/L
  PL: 133.6 mg/dL
  RALB: 2.5 g/dL
  TBIL: 0.054 mg/dL
  TC: 76.6 mg/dL
  TG: 70.8 mg/dL
  TP: 5.4 g/dL
  gamma-GTP: 1 IU/L
6 h
  TERMINAL_BW: 187.6 g
  APTT: 17.1 s
  Bas: 0%
  Eos: 0.8%
  Fbg: 272.2 mg/dL
  Hb: 13.7 g/dL
  Ht: 41.1%
  Lym: 81%
  MCH: 21.7 pg
  MCHC: 33.3%
  MCV: 65.2 fL
  Mono: 2.4%
  Neu: 15.4%
  PT: 12.3 s
  Plat: 136.7 x10_4/uL
  RBC: 631 x10_4/ul
  Ret: 9.9%
  WBC: 49.9 x10_2/uL
  KIDNEY_L: 0.8 g
  KIDNEY_R: 0.8 g
  KIDNEY_TOTAL: 1.7 g
  LIVER: 7.7 g
  A/G: 0.9
  ALP: 1883.6 IU/L
  ALT: 52 IU/L
  AST: 81 IU/L
  BUN: 6 mg/dL
  CRE: 0.1 mg/dL
  Ca: 11.7 mg/dL
  Cl: 105.2 meq/L
  DBIL: 0.006 mg/dL
  GLC: 225.8 mg/dL
  IP: 13.1 mg/dL
  K: 5.4 meq/L
  LDH: 71.8 IU/L
  Na: 144.8 meq/L
  PL: 122 mg/dL
  RALB: 2.6 g/dL
  TBIL: 0.054 mg/dL
  TC: 76.6 mg/dL
  TG: 38 mg/dL
  TP: 5.6 g/dL
  gamma-GTP: 1 IU/L
9 h
  TERMINAL_BW: 188.2 g
  APTT: 17.2 s
  Bas: 0%
  Eos: 0.4%
  Fbg: 262.8 mg/dL
  Hb: 13.5 g/dL
  Ht: 40.3%
  Lym: 79%
  MCH: 22.1 pg
  MCHC: 33.6%
  MCV: 65.8 fL
  Mono: 2.6%
  Neu: 17.4%
  PT: 12.5 s
  Plat: 122.5 x10_4/uL
  RBC: 614.4 x10_4/ul
  Ret: 9.7%
  WBC: 52.4 x10_2/uL
  KIDNEY_L: 0.8 g
  KIDNEY_R: 0.8 g
  KIDNEY_TOTAL: 1.6 g
  LIVER: 7.3 g
  A/G: 0.9
  ALP: 1418.8 IU/L
  ALT: 46.2 IU/L
  AST: 67.8 IU/L
  BUN: 6.2 mg/dL
  CRE: 0.1 mg/dL
  Ca: 11.4 mg/dL
  Cl: 105.6 meq/L
  DBIL: 0.008 mg/dL
  GLC: 220 mg/dL
  IP: 11.8 mg/dL
  K: 4.9 meq/L
  LDH: 62 IU/L
  Na: 144.2 meq/L
  PL: 120 mg/dL
  RALB: 2.5 g/dL
  TBIL: 0.056 mg/dL
  TC: 75.4 mg/dL
  TG: 30.8 mg/dL
  TP: 5.3 g/dL
  gamma-GTP: 1 IU/L
24 h
  TERMINAL_BW: 180.6 g
  APTT: 16.9 s
  Bas: 0%
  Eos: 1%
  Fbg: 251.2 mg/dL
  Hb: 13.4 g/dL
  Ht: 39.6%
  Lym: 76%
  MCH: 21.9 pg
  MCHC: 33.9%
  MCV: 64.5 fL
  Mono: 3%
  Neu: 20%
  PT: 12.5 s
  Plat: 133.6 x10_4/uL
  RBC: 613.2 x10_4/ul
  Ret: 9.5%
  WBC: 49.4 x10_2/uL
  KIDNEY_L: 0.9 g
  KIDNEY_R: 0.9 g
  KIDNEY_TOTAL: 1.8 g
  LIVER: 7.5 g
  A/G: 0.9
  ALP: 1827.4 IU/L
  ALT: 50 IU/L
  AST: 73.4 IU/L
  BUN: 20 mg/dL
  CRE: 0.2 mg/dL
  Ca: 11.4 mg/dL
  Cl: 108.2 meq/L
  DBIL: 0.02 mg/dL
  GLC: 202.2 mg/dL
  IP: 8.8 mg/dL
  K: 4.8 meq/L
  LDH: 63.4 IU/L
  Na: 146.2 meq/L
  PL: 139.4 mg/dL
  RALB: 2.7 g/dL
  TBIL: 0.074 mg/dL
  TC: 84 mg/dL
  TG: 60.6 mg/dL
  TP: 5.7 g/dL
  gamma-GTP: 1 IU/L

— ChEMBL document CHEMBL3885861, “Open TG-GATES”
